Results as given in patent US5294617A, “Angiotensin II receptor blocking 2,3,6 substituted quinazolinones” (American Cyanamid Company, priority 1993, dated 1994).
Several values for one entry are separate records, joined by “and”; a condition that tells them apart may be missing. Equal entries are not always repeated.

Test system: ANGIOTENSIN II (AII) VASOPRESSOR RESPONSE
Assay: AII Challenge: angiotensin II vasopressor response in conscious spontaneously hypertensive rats
Assay type: in vivo, Conscious Male Okamoto-Aoki SHR (rat)
Settings: individual rat, SHR
Excerpt: By administering a compound of this invention to a rat, and then challenging with angiotensin II, a blockage of the vasopressor response is realized.
Conscious Male Okamoto-Aoki SHR, 16-20 weeks old, weighing approximately 330 g are purchased from Charles River Labs (Wilmington, Mass.). Conscious rats are restrained in a supine position with elastic tape. The area at the base of the tail is locally anesthetized by subcutaneous infiltration with 2% procaine. The ventral caudal artery and vein are isolated, and a cannula made of polyethylene (PE) 10-20 tubing (fused together by heat) is passed into the lower abdominal aorta and vena cava, respectively. The cannula is secured, heparinized (1,000 I.U./ml), sealed and the wound is closed. The animals are placed in plastic restraining cages in an upright position. The cannula is attached to a Statham P23Db pressure transducer, and pulsatile blood pressure is recorded to 10-15 minutes with a Gould Brush recorder. (Chan et al., (Drug Development Res., 18:75-94, 1989).
Angiotensin II (human sequence, Sigma Chem. Co., St. Louis, Mo.) of 0.05 and 0.1 ug/kg i.v. is injected into all rats (predosing response). Then a test compound, vehicle or a known angiotensin II antagonist is administered i.v., i.p. or orally to each set of rats. The two doses of angiotensin II are given to each rat again at 30, 60, 90, 120, 180, 240 and 300 minutes post dosing the compound or vehicle. The vasopressor response of angiotensin II is measured for the increase in systolic blood pressure in mmHg. The percentage of antagonism or blockade of the vasopressor response of angiotensin II by a compound is calculated using the vasopressor response (increase in systolic blood pressure) of angiotensin II of each rat predosing the compound as 100%. A compound is considered active if at 30 mg/kg i.v. it antagonized at least 50% of the response.

[1] = 2 mg/kg i.v., AII 0.1 mcg/kg IV, 90 min post dose, 2 mg/kg
[2] = 2 mg/kg i.v., AII 0.1 mcg/kg IV, 120 min post dose, 2 mg/kg
[3] = 2 mg/kg i.v., AII 0.1 mcg/kg IV, 180 min post dose, 2 mg/kg
[4] = 10 mg/kg i.v., AII 0.05 mcg/kg IV, 30 min post dose, 10 mg/kg
[5] = 10 mg/kg i.v., AII 0.05 mcg/kg IV, 60 min post dose, 10 mg/kg
[6] = 10 mg/kg i.v., AII 0.05 mcg/kg IV, 120 min post dose, 10 mg/kg
[7] = 10 mg/kg i.v., AII 0.05 mcg/kg IV, 180 min post dose, 10 mg/kg
[8] = 10 mg/kg i.v., AII 0.05 mcg/kg IV, 240 min post dose, 10 mg/kg
[9] = 10 mg/kg i.v., AII 0.05 mcg/kg IV, 300 min post dose, 10 mg/kg
[10] = 10 mg/kg i.v., AII 0.1 mcg/kg IV, 30 min post dose
[11] = 10 mg/kg i.v., AII 0.1 mcg/kg IV, 60 min post dose, 10 mg/kg
[12] = 10 mg/kg i.v., AII 0.1 mcg/kg IV, 90 min post dose, 10 mg/kg
[13] = 10 mg/kg i.v., AII 0.1 mcg/kg IV, 120 min post dose, 10 mg/kg
[14] = 10 mg/kg i.v., AII 0.1 mcg/kg IV, 180 min post dose, 10 mg/kg
[15] = 10 mg/kg i.v., AII 0.1 mcg/kg IV, 240 min post dose, 10 mg/kg
[16] = 10 mg/kg i.v., AII 0.1 mcg/kg IV, 300 min post dose, 10 mg/kg

CCCCc1nc2ccc([C@@H]3C[C@H](CO)ON3C)cc2c(=O)n1Cc1ccc(-c2ccccc2-c2nn[nH]n2)cc1 (relative stereo) [Example 15, CIS-2-butyl-6-5-(hydroxymethyl)-2-methyl-3-isoxazolidinyl]-3-[[2'-(1H-tetrazol-5[1,1'-biphenyl]-4-yl]methyl]-4(3H)-quinazolinone]
Response After AII [1]: 245 mmHg and 240 mmHg
Response Change [1]: 30 mmHg and 20 mmHg
Response After AII [2]: 227 mmHg and 235 mmHg
Response Change [2]: 17 mmHg and 20 mmHg
Response After AII [3]: 220 mmHg and 255 mmHg
Response Change [3]: 10 mmHg and 35 mmHg
Control Before AII (2 mg/kg i.v., before AII 0.05 mcg/kg IV, 30 min post dose, 2 mg/kg): 215 mmHg and 225 mmHg
Control Before AII (2 mg/kg i.v., before AII 0.05 mcg/kg IV, 60 min post dose): 220 mmHg
Control Before AII (2 mg/kg i.v., before AII 0.05 mcg/kg IV, 90 min post dose, 2 mg/kg): 210 mmHg and 225 mmHg
Control Before AII (2 mg/kg i.v., before AII 0.05 mcg/kg IV, 120 min post dose, 2 mg/kg): 205 mmHg and 215 mmHg
Control Before AII (2 mg/kg i.v., before AII 0.05 mcg/kg IV, 180 min post dose, 2 mg/kg): 203 mmHg and 215 mmHg
Control Before AII (2 mg/kg i.v., before AII 0.1 mcg/kg IV, 30 min post dose, 2 mg/kg): 220 mmHg and 215 mmHg
Control Before AII (2 mg/kg i.v., before AII 0.1 mcg/kg IV, 60 min post dose, 2 mg/kg): 220 mmHg and 217 mmHg
Control Before AII (2 mg/kg i.v., before AII 0.1 mcg/kg IV, 90 min post dose, 2 mg/kg): 215 mmHg and 220 mmHg
Control Before AII (2 mg/kg i.v., before AII 0.1 mcg/kg IV, 120 min post dose, 2 mg/kg): 210 mmHg and 215 mmHg
Control Before AII (2 mg/kg i.v., before AII 0.1 mcg/kg IV, 180 min post dose, 2 mg/kg): 210 mmHg and 220 mmHg
Response After AII [4]: 180 mmHg and 190 mmHg
Response Change [4]: 5 mmHg and 15 mmHg
Response After AII (10 mg/kg i.v., AII 0.05 mcg/kg IV, 60 min post dose): 190 mmHg
Response After AII [5]: 165 mmHg
Response Change [5]: 0 mmHg and 1 mmHg
Response Change (10 mg/kg i.v., AII 0.05 mcg/kg IV, 90 min post dose): 5 mmHg
Response After AII (10 mg/kg i.v., AII 0.05 mcg/kg IV, 90 min post dose, 10 mg/kg): 180 mmHg and 170 mmHg
Response After AII [6]: 195 mmHg and 175 mmHg
Response Change [6]: 15 mmHg and 10 mmHg
Response After AII [7]: 195 mmHg and 165 mmHg
Response Change [7]: 30 mmHg and 10 mmHg
Response After AII (10 mg/kg i.v., AII 0.05 mcg/kg IV, 240 min post dose): 160 mmHg
Response After AII [8]: 195 mmHg
Response Change [8]: 25 mmHg and 5 mmHg
Response After AII (10 mg/kg i.v., AII 0.05 mcg/kg IV, 300 min post dose): 170 mmHg
Response After AII [9]: 185 mmHg
Response Change [9]: 17 mmHg and 10 mmHg
Response After AII [10]: 170 mmHg
Response Change [10]: 0 mmHg
Response After AII (10 mg/kg i.v., AII 0.1 mcg/kg IV, 30 min post dose, 10 mg/kg): 185 mmHg
Response After AII [11]: 193 mmHg and 170 mmHg
Response Change [11]: 8 mmHg and 10 mmHg
Response After AII [12]: 195 mmHg and 175 mmHg
Response Change [12]: 10 mmHg and 15 mmHg
Response After AII (10 mg/kg i.v., AII 0.1 mcg/kg IV, 120 min post dose): 190 mmHg
Response After AII [13]: 175 mmHg
Response Change [13]: 15 mmHg and 10 mmHg
Response After AII [14]: 205 mmHg and 165 mmHg
Response Change [14]: 35 mmHg and 8 mmHg
Response After AII [15]: 205 mmHg and 165 mmHg
Response Change [15]: 35 mmHg and 8 mmHg
Response After AII [16]: 190 mmHg and 200 mmHg
Response Change [16]: 25 mmHg and 40 mmHg
Control Before AII (10 mg/kg i.v., before AII 0.05 mcg/kg IV, 30 min post dose): 175 mmHg
Control Before AII (10 mg/kg i.v., before AII 0.05 mcg/kg IV, 60 min post dose, 10 mg/kg): 190 mmHg and 164 mmHg
Control Before AII (10 mg/kg i.v., before AII 0.05 mcg/kg IV, 90 min post dose, 10 mg/kg): 175 mmHg and 165 mmHg
Control Before AII (10 mg/kg i.v., before AII 0.05 mcg/kg IV, 120 min post dose, 10 mg/kg): 180 mmHg and 165 mmHg
Control Before AII (10 mg/kg i.v., before AII 0.05 mcg/kg IV, 180 min post dose, 10 mg/kg): 165 mmHg and 155 mmHg
Control Before AII (10 mg/kg i.v., before AII 0.05 mcg/kg IV, 240 min post dose, 10 mg/kg): 170 mmHg and 155 mmHg
Control Before AII (10 mg/kg i.v., before AII 0.05 mcg/kg IV, 300 min post dose, 10 mg/kg): 168 mmHg and 160 mmHg
Control Before AII (10 mg/kg i.v., before AII 0.1 mcg/kg IV, 30 min post dose, 10 mg/kg): 185 mmHg and 170 mmHg
Control Before AII (10 mg/kg i.v., before AII 0.1 mcg/kg IV, 60 min post dose, 10 mg/kg): 185 mmHg and 160 mmHg
Control Before AII (10 mg/kg i.v., before AII 0.1 mcg/kg IV, 90 min post dose, 10 mg/kg): 185 mmHg and 160 mmHg
Control Before AII (10 mg/kg i.v., before AII 0.1 mcg/kg IV, 120 min post dose, 10 mg/kg): 175 mmHg and 165 mmHg
Control Before AII (10 mg/kg i.v., before AII 0.1 mcg/kg IV, 180 min post dose, 10 mg/kg): 170 mmHg and 157 mmHg
Control Before AII (10 mg/kg i.v., before AII 0.1 mcg/kg IV, 240 min post dose, 10 mg/kg): 170 mmHg and 157 mmHg
Control Before AII (10 mg/kg i.v., before AII 0.1 mcg/kg IV, 300 min post dose, 10 mg/kg): 165 mmHg and 160 mmHg
